Consider one molecule from US10183062B2, “Treatment for cancer” (The University of Nottingham, priority 2013, dated 2019).

The subject of data set [1] is HCT116 tumours. The experiment in a line: Mouse xenograft tumour growth delay (CDEPT). It counts as in vivo, NMRI nu/nu mice. Particulars: prodrug alone, 15 mg/kg i.p., 5 consecutive days. As to the method: Human colorectal HCT116 carcinoma cells were grown in DMEM medium supplemented with 10% FBS, trypsinized and injected subcutaneously in 100 μl PBS/ . . . % matrigel at a concentration of 5.10^6 cells in the abdominal flank of adult NMRI nu/nu mice. As soon as tumours were palpable, tumour volumes were determined three times per week by measuring three orthogonal diameters using calipers. Volumes were calculated according to the formula V=A×B×C×/6. All experiments were conducted in accordance with local institutional guidelines of the University of Leuven, approved by the animal ethics committee and procedures were according to the guidelines defined by the UKCCCR (12). […] Tumour growth delay was determined for each individual tumour within the different groups as the time necessary to reach three times their initial volume at the start of the treatment. […]
Since strains E1 and N1 express stably-integrated NTR under the regulatory control of a strong promoter without inclusion of any antibiotic resistance gene, it was next determined whether administration of these clinically-applicable strains in combination with prodrug administration to tumour-bearing animals would result in anti-tumour efficacy. It was first evaluated whether inactivation of pyrE affected the tumour-colonizing capacity of systemically administered spores. […]

The target of data set [2] is NmeNTR, Neisseria meningitidis MC58 nitroreductase (NfnB homolog, Q9K022), wild type, SEQ ID NO: 1 (Neisseria meningitidis, UniProt Q9K022). The data set can be described thus: CB1954 nitroreductase activity, HPLC, purified His-tagged NmeNTR. It counts as biochemical. The note with it: CB1954, cofactor NADH; 37° C., pH 7.0. The text has this: Genes encoding homologs of E. coli NfnB and Bacillus amyloliquefaciens YwrO from several bacteria were cloned into an E. coli expression vector for screening (see Methods below). These were the NfnB homolog from Neisseria meningitidis MC58 (‘NmeNTR’, accession number Q9K022), the NfnB homolog from Haemophilus somnus 129PT (‘HsoNTR’, accession number ZP_00122352.1), the NfnB homolog from Burkholderia fungorum LB400 (‘BfuNTR’, accession number ZP_00029570.1), the YwrO homolog from Vibrio cholerae (‘VchYwrO’, accession number Q9KNX3), the YwrO homolog from Rhodobacter sphaeroides (‘RspYwrO’, accession number ZP_00007082.1), and two YwrO homologs from Pseudomonas aeruginosa (‘PaeYwrO1’, accession number Q9HUJ0; and ‘PaeYwrO2’, accession number Q9I4B3).
For determination of CB1954 nitroreductase kinetic parameters, six-histidine affinity-tagged enzymes were purified from cell lysates purified using a Novagen His-Bind kit in accordance with the manufacturer's instructions.
CB1954 nitroreductase activity was determined essentially as described by Anlezark (6). Reaction mixtures containing 500 μM NADH or NADPH and a small quantity of enzyme (either crude lysate or purified enzyme) were assembled in pre-warmed (to 37° C.) 100 mM sodium phosphate buffer (pH 7.0), and started with the addition of 100 μM CB1954 and prompt mixing.
To determine initial reaction rates during preliminary screening of CB1954 nitroreductase candidates, aliquots of the reaction mixtures taken at various times were injected into a Partisphere SCX (100×4.7 mm) HPLC column and eluted isocratically at 2 ml/min with 130 mM NaH2PO4 (pH 5.0). Eluates were continuously monitored at 260 nm and 325 nm, and the absorbance spectra of eluting components recorded using a photodiode array detector. Peaks were identified with reference to standards and/or by their known absorbance spectra (7) and anticipated column retention times as appropriate. Rates were determined based on the decrease in the area under the CB1954 peak over time, normalised to the known starting concentration of 100 μM using the peak from the zero timepoint sample.
To determine initial reaction rates and CB1954 nitroreduction products in later experiments with purified proteins, peaks were identified as before, and rates were determined based on the increase in the area under the 4-hydroxylamine derivative peak over time, normalised using enzymatically-synthesised 4-hydroxylamine standards.
NmeNTR and HsoNTR were each affinity-tagged, over-expressed, purified, and the CB1954 nitroreductase activities of the purified proteins characterized using the HPLC assay. The reaction products and kinetic parameters of these enzymes with respect to CB1954 and NADH were determined (Table 1). […] Moreover, the kinetic parameters of HsoNTR and NmeNTR differ dramatically from those of E. coli NfnB and other published enzymes (Table 1). […] NmeNTR would therefore approach saturation with CB1954 in a therapeutic regime using the maximum clinically-recommended dose, so the prodrug would be efficiently activated and high levels of tumour-specific cytotoxicity achieved.

Data set [3] concerns E. coli NfsA nitroreductase. The note with it: Vass et al., 2009, cited from earlier work; for Km: read-out: Km^CB1954.
The test system of data set [4] is BliNTR, NTR from Bacillus licheniformis. Particulars: Emptage et al., 2009, cited from earlier work.
Data set [5] relates to Vibrio fischeri FRase I variant F124W. Particulars: Swe et al., 2012, cited from earlier work.
For data set [6] the following is noted: cited from earlier work.

One may read the Km as the substrate concentration at which the rate is half of its maximum.

Each structure is given as a SMILES string. Read-outs that look alike come from different tables or passages of the source.

For `NC(=O)c1cc(N2CC2)c([N+](=O)[O-])cc1[N+](=O)[O-]` [CB1954, 5-(aziridin-1-yl)-2,4-dinitrobenzamide], the tumour growth delay result in data set [1] is “did not result in any effect”. Also, the Kcat in data set [2] was 4.04 (NADH) S^−1; in data set [3] (CB1954, cofactor NADH), 2.60 (NADH) S^−1; in data set [3] (CB1954, cofactor NADPH), 20.9 (NADPH) S^−1; in data set [4] (CB1954), 6.4 S^−1; in data set [5] (CB1954), 26.6 S^−1. The Km is 18 µM in data set [3] (cofactor NADH), 140 µM in data set [3] (cofactor NADPH), 30 µM in data set [4] (read-out: Km^CB1954) and 259 µM in data set [5] (read-out: Km^CB1954). Besides, in data set [6] (in vivo), the “maximum concentration which can be safely achieved in patient serum” value was 6.3 µM. In addition, the “peak concentrations in patient sera” value in data set [6] (safe doses) was 1 to 10 µM.
